Data reported in patent publication US20200345058A1, “Nicotine Oxalic Acid Formulations” (priority 2017, published 2020).

Conditions: 0.5% (w/w) nicotine or higher and 0.9% (w/w) tartaric acid or higher, ambient conditions
Excerpt: As used herein, weight percentage (w/w) refers to the weight of the individual component over the weight of the total formulation.

With CN1CCCC1c1cccnc1.O=C(O)C(O)C(O)C(=O)O (stereo not shown) [nicotine bitartrate] the “solubility in propylene glycol (PG), vegetable glycerin (VG) or any mixture (in words)” value was “will not produce a solution”.
